According to PMC3914206:

Assays:
Format in all cases: binding
[1] = biological target: T1, panel of 442 kinases (Homo sapiens, UniProt P48730); conditions: Compound Concentration 10 µM
T1 construct: purchased KINOMEscan
Description: (§1) We assessed the selectivity of members of this scaffold using the KINOMEscan methodology across a near comprehensive panel of 442 kinases [[18,27]].

[2] = biological target: T2, panel of 442 kinases (Homo sapiens, UniProt P78362); conditions: kinase SRPK2; compound concentration 10 µM
T2 construct: purchased KINOMEscan
T2 sequence (P78362 whole entry): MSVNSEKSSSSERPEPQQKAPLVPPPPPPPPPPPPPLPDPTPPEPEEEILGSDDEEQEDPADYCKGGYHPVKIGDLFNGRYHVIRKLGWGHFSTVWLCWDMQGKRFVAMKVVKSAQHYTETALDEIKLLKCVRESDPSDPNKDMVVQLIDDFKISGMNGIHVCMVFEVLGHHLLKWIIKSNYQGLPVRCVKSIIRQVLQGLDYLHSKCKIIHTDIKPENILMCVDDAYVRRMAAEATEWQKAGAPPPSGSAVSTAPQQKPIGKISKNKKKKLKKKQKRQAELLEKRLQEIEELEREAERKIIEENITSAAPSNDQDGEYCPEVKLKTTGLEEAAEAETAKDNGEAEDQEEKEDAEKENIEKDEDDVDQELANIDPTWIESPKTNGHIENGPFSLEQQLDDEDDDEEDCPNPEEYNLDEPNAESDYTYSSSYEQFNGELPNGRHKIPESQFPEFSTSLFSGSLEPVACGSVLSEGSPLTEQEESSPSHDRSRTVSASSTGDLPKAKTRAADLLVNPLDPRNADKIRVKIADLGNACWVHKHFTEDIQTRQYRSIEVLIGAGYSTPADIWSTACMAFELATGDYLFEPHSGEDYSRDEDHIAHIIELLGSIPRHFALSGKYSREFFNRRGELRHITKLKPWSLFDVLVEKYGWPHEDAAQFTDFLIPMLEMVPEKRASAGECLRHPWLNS
Description: as §1

[3] = biological target: T3, panel of 442 kinases (Homo sapiens, UniProt O76039); conditions: Compound Concentration 10 µM
T3 construct: purchased KINOMEscan
T3 sequence (O76039 1-960): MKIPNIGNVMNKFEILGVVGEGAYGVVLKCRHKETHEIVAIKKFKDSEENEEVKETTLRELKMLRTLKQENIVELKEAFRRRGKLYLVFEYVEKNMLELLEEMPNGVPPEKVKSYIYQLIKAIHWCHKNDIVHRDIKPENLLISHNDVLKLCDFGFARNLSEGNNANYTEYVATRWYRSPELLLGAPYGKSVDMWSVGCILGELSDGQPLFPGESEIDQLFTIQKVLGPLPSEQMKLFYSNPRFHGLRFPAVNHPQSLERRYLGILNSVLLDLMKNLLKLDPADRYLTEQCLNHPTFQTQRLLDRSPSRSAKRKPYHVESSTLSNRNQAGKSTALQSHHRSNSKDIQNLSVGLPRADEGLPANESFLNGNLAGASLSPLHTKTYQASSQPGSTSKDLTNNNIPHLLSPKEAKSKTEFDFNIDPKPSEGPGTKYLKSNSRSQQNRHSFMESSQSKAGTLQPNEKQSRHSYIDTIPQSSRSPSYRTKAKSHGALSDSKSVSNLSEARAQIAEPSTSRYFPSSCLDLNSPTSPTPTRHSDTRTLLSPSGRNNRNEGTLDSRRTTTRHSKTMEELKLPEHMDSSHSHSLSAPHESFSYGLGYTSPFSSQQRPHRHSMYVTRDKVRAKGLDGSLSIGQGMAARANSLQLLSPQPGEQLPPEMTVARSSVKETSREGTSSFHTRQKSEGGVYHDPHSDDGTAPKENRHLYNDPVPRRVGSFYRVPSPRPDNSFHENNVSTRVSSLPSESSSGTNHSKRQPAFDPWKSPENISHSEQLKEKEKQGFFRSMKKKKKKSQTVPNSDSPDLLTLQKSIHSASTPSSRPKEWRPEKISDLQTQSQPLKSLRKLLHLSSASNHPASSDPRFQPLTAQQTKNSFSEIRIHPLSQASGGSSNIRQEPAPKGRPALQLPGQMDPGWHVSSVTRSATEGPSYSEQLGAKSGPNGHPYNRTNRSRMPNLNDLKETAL
Description: as §1

T1 sequence (P48730 whole entry): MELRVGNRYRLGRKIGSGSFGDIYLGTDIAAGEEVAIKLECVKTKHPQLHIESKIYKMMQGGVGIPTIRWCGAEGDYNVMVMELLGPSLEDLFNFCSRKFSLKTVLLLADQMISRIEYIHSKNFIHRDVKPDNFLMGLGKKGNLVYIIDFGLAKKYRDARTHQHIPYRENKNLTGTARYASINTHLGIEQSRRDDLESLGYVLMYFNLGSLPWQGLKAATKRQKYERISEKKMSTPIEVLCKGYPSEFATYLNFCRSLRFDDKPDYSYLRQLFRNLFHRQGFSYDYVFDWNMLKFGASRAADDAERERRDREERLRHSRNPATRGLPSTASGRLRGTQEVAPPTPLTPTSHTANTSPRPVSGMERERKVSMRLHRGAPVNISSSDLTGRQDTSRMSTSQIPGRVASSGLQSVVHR

Structure (SMILES) | KINOMEscan: CSNK1D [1] | % Ctrl, SRPK2 [2] | KINOMEscan: CDKL5 [3]
COc1cc(C(=O)N2CCC(N3CCN(C)CC3)CC2)ccc1Nc1ncc2c(n1)N1CCc3cccc(c31)C(=O)N2C [Compound 24] | 60 | 98 % Ctrl | –
CCOc1cc(C(=O)N2CCC(N3CCN(C)CC3)CC2)ccc1Nc1ncc2c(n1)N(C1CCCC1)c1ccccc1C(=O)N2C [Compound 26] | 100 | 100 % Ctrl | 100
COc1cc(C(=O)N2CCC(N3CCN(C)CC3)CC2)ccc1Nc1ncc2c(n1)N(C1CCCC1)c1ccccc1C(=O)N2C [Compound 25, 11-cyclopentyl-2-((2-methoxy-4-(4-(4-methylpiperazin-1-yl)piperidine-1-carbonyl)phenyl)amino)-5-methyl-5H-benzo[e]pyrimido[5,4-b][1,4]diazepin-6(11H)-one] | 98 | 86 % Ctrl | 93
COc1cc(C(=O)N2CCC(N3CCN(C)CC3)CC2)ccc1Nc1ncc2c(n1)N(C)c1ccccc1C(=O)N2C [15 (LRRK2-IN-1)] | 81 | 100 % Ctrl | 100
